Data on 15 compounds can be found in US4302448A, “Secretin preparations with intensified and protracted action, process for their manufacture, their use as well as dihydroxybenzoyl-L-tyrosine” (Hoechst Aktiengesellschaft, priority 1979, dated 1981).

Holding throughout (type): in vivo
Test [1] deals with Pancreatic juice secretion of the rat. The test can be described thus: Pancreatic juice secretion of the rat after subcutaneous administration of secretin with depot bodies. The conditions noted are these: rat, subcutaneous, 5 CU/kg secretin + 10 mg depot body/animal; for Δ% vs. control (percentage by which the pancreatic secretion is above the basal secretion after 5 hours): control=100%, measure of depot effect; for Rel. Intensity of effect over 5 hours (total pancreatic juice secretion over 5 hours as compared with control): control (0.9% of NaCl)=1. The procedure:
Secretin preparations for subcutaneous application which contained the depot bodies specified in the following Table were tested in animal experiments. In the experimental procedure chosen, 5 to 8 male rats weighing 300 to 500 g each are administered subcutaneously 5 CU/kg of secretin (CU means clinical unit) and 10 mg of the depot body to be tested each in aqueous solution or suspension.
The animals remain without food for 18 hours prior to the test, but they are given water ad libitum. Under urethane anaesthesia (5 ml/kg i.m. of 25% urethane) the abdomen is opened by median section after tracheotomy, and the pylorus is ligated. The ductus choledochus is tied off in its proximal part near the porta hepatis, and the bile is led into the duodenum via a polyethylene tube of a diameter of […]. A cannula or catheter is inserted into the distal part of the bile duct, into which the numerous pancreatic ducts open, immediately before it opens into the duodenum, and the volume of the secretion running off is measured in 60 minute intervals. Following a preliminary run of 60 minutes the preparations are administered.
L means the compound known from literature and characterized by the melting point, optionally UV, IR or NMR. A to C relate to the preparation according to Example 1, process A to C. These compounds were characterized by ultimate analysis. The third column indicates the percentage by which the pancreatic secretion is above the basal secretion after 5 hours (calculated on the control=100%). This value is a measure for the depot effect of the depot body tested. Column 4 indicates the intensification of the secretin effect, with the total pancreatic juice secretion having been given over 5 hours as compared with the control (0.9% of NaCl)=1.

A further test has as its system pancreatic juice. As to the kind of experiment: Pancreatic juice production in rats after rectal administration of secretin suppository with or without depot body. Here is the method: The intensified effect of secretin in the form of rectally administrable preparations due to the depot bodies used according to the invention becomes evident from the drawing. In a test carried out on 8 rats each weighing 0.5 kg, 100 μg of secretin in a suppository of a weight of 73 mg cause the production of 92 μl of pancreatic juice (curve 1). With the addition of 25 mg of 3,5-dihydroxybenzoyl-L-tyrosine the volume of pancreatic juice rose to 1778 μl (curve 2). This corresponds to an increase of the effect to about 20 times its original value. […] In the present case the secretin dose has been chosen very high in order to obtain a measurable volume also without additive.
With a non-maximum stimulation in the normal dose range (about half the dose), the increase of the effect is about 50-fold.

Test [2] relates to pancreatic juice secretion. The test can be described thus: Biological effect of rectally administered secretin measured via pancreatic juice secretion, compared with subcutaneous injection. As to conditions: secretin in suppositories or rectal capsules without depot body. The procedure:
Many medicaments may be incorporated in suppositories and administered rectally. They are sufficiently well absorbed in this form. […] For example, if secretin is administered by this route, the biological effect which is measured via pancreatic juice secretion is only about 1% of the effect obtained with subcutaneous injection.

[3] abbreviates: rats, rectal, 100 μg secretin + 25 mg depot body.

Turning to `O=C(N[C@@H](Cc1ccc(O)cc1)C(=O)O)c1cc(O)cc(O)c1` [3,5-Dihydroxybenzoyl-L-tyrosine], in test [1], the “Δ% vs. control (percentage by which the pancreatic secretion is above the basal secretion after 5 hours)” value stood at 76% and the “Rel. Intensity of effect over 5 hours (total pancreatic juice secretion over 5 hours as compared with control)” value is on record as 9.2. In addition, the “volume of pancreatic juice” value in the test on pancreatic juice (8 rats of 0.5 kg, rectal, 100 μg secretin suppository with addition of 25 mg depot body (curve 2)) turned out to be 1778 µL. Besides, the “increase in efficacy, rectal versus subcutaneous application (in words)” value with pancreatic juice (comparison of routes) is recorded as “greater increase in efficacy when applied rectally than with subcutaneous application”. Further, in the test on pancreatic juice (setting [3]), the “increase of the effect relative to original value (secretin suppository without additive)” value is “about 20 times” and the “protracted action (in words)” value is “a protracted action can also be observed”. Also, the “increase of the effect” value in the test with pancreatic juice (rectal, non-maximum stimulation in the normal dose range (about half the dose)) is recorded as “about 50 fold”.
In the case of “Bis-(2-carboxybenzoyl-L-tyrosine)-diaminoethane”, in test [1], the “Δ% vs. control (percentage by which the pancreatic secretion is above the basal secretion after 5 hours)” value is 48% and the “Rel. Intensity of effect over 5 hours (total pancreatic juice secretion over 5 hours as compared with control)” value is 6.3.
As for Bis-(2-hydroxybenzoyl)-diaminoethane, in test [1], the “Δ% vs. control (percentage by which the pancreatic secretion is above the basal secretion after 5 hours)” value stood at 72% and the “Rel. Intensity of effect over 5 hours (total pancreatic juice secretion over 5 hours as compared with control)” value was 5.9.
On to “Bis-(3,5-dihydroxybenzoyl)-1,4-diaminobutane”, for which, in test [1], the “Δ% vs. control (percentage by which the pancreatic secretion is above the basal secretion after 5 hours)” value came out at 85% and the “Rel. Intensity of effect over 5 hours (total pancreatic juice secretion over 5 hours as compared with control)” value is 7.4.
As to “Bis-(3,5-dihydroxybenzoyl)-diaminoethane”, in test [1], the “Δ% vs. control (percentage by which the pancreatic secretion is above the basal secretion after 5 hours)” value is given as 79% and the “Rel. Intensity of effect over 5 hours (total pancreatic juice secretion over 5 hours as compared with control)” value worked out at 6.1.
For “Bis-(3,5-dihydroxybenzoyl-L-tyrosine)-diaminoethane” the same measures were 58% and 7.0.
For “Bis-(3-benzoylpropionyl-L-tyrosine)-diaminoethane” the same measures were 60% and 3.7.
The corresponding values for “Bis-(benzyloxycarbonyl-L-tyrosine)-diaminoethane” are 44% and 5.5.
For Bis-phloretin phosphate, in test [1], the “Δ% vs. control (percentage by which the pancreatic secretion is above the basal secretion after 5 hours)” value was 56% and the “Rel. Intensity of effect over 5 hours (total pancreatic juice secretion over 5 hours as compared with control)” value came out at 2.5.
For Phloretin-3,5-dimethylphenyl phosphate the same measures were 68% and 3.7.
Regarding “Tris-(2,8-dihydroxy-3-naphthoyl)-diethylene-triamine”, in test [1], the “Δ% vs. control (percentage by which the pancreatic secretion is above the basal secretion after 5 hours)” value amounted to 94% and the “Rel. Intensity of effect over 5 hours (total pancreatic juice secretion over 5 hours as compared with control)” value was determined as 9.4.
Consider “Tris-(2-hydroxybenzoyl)-diethylene-triamine”, for which, in test [1], the “Δ% vs. control (percentage by which the pancreatic secretion is above the basal secretion after 5 hours)” value worked out at 62% and the “Rel. Intensity of effect over 5 hours (total pancreatic juice secretion over 5 hours as compared with control)” value stood at 8.1.
The corresponding values for “Tris-(3-hydroxybenzoyl)-diethylene-triamine” are 71% and 8.0.
For “Tris-(4-hydroxybenzoyl)-diethylene-triamine” the same measures were 68% and 7.8.
Regarding secretin [reference compound], in the test with pancreatic juice (8 rats of 0.5 kg, rectal, 100 μg secretin in 73 mg suppository, no additive (curve 1)), the “production of pancreatic juice” value stood at 92 µL. In test [2], the “biological effect of rectal administration relative to effect obtained with subcutaneous injection” value is listed as “about 1%”.
